Tested on: rumen liquor
Assay: In vitro test for methane production (modified Hohenheim Forage value Test, HFT)
Details: for Effect on Methanogenesis (% compared to control) / Effect on VFA production (% compared to control): artificial TMR, 8 hours at 39° C.; for Effect on Methanogenesis (% compared to control) / Effect on VFA production (% compared to control) / VFA profile (as percentage of total VFA) Ace. / VFA profile (as percentage of total VFA) But. / VFA profile (as percentage of total VFA) Prop.: average of three experiments; for VFA profile (as percentage of total VFA) Ace.: acetate; for VFA profile (as percentage of total VFA) But.: butyrate; for VFA profile (as percentage of total VFA) Prop.: propionate

Row | Structure (SMILES) | Effect on Methanogenesis (% compared to control) (Dose 0.01 % DM) [%] | Effect on VFA production (% compared to control) (Dose 0.01 % DM) [%] | VFA profile (as percentage of total VFA) Ace. (Dose 0.01 % DM) | VFA profile (as percentage of total VFA) But. (Dose 0.01 % DM) | VFA profile (as percentage of total VFA) Prop. (Dose 0.01 % DM) | effect on the acetate/propionate ratio (in words) (3-nitrooxy propanol at 0.01% DM when combined with monensin) | methane inhibition (in words) (3-nitrooxy propanol used at 0.01% DM) | Effect on Methanogenesis (% compared to control) (Dose 0.005 % DM) [%] | Effect on VFA production (% compared to control) (Dose 0.005 % DM) [%] | VFA profile (as percentage of total VFA) Ace. (Dose 0.005 % DM) | VFA profile (as percentage of total VFA) But. (Dose 0.005 % DM) | VFA profile (as percentage of total VFA) Prop. (Dose 0.005 % DM)
1 | CC[C@@]1([C@@H]2O[C@@H]([C@H]3O[C@@](O)(CO)[C@H](C)C[C@@H]3C)C[C@@H]2C)CC[C@H]([C@]2(C)CC[C@]3(C[C@H](O)[C@@H](C)[C@@H]([C@@H](C)[C@@H](OC)[C@H](C)C(=O)O)O3)O2)O1 [Monensin, monensin, reference compound] | −23 | −6 | 56 percentage of total VFA | 6 percentage of total VFA | 38 percentage of total VFA |  |  |  |  |  |  | 
2 | O=[N+]([O-])OCCCO [3-nitrooxy propanol, 3-Nitrooxypropanol] | −97 | −13 | 50 percentage of total VFA | 8 percentage of total VFA | 42 percentage of total VFA | further additive effect | maximal methane inhibition | −21 | −3 | 57 percentage of total VFA | 7 percentage of total VFA | 36 percentage of total VFA

Reference: patent US10154981B2, “Use of a feed composition for reducing methane emission in ruminants, and/or to improve ruminant performance” (DSM IP ASSETS B.V., priority 2011, dated 2018)
